From patent publication US5840684A, “Glycopeptide antibiotic derivatives” (Eli Lilly and Company, priority 1995, dated 1998)
Converted amounts (≈) assume the structure as drawn.

Experiments:
[1] = system: Staphylococcus aureus SA1199B; format: cell-based
Procedure: (§1) The MIC's were determined using a standard broth micro-dilution assay.

[2] = system: Entercoccus faecium 180-1; assay: broth micro-dilution MIC; format: cell-based
Procedure: as §1

[3] = system: Staphylococcus aureus SA1199; assay: broth micro-dilution MIC; format: cell-based
Procedure: as §1

[4] = system: Staphylococcus aureus X400; assay: broth micro-dilution MIC; format: cell-based
Procedure: as §1

[5] = system: Staphylococcus aureus X778; assay: broth micro-dilution MIC; format: cell-based
Procedure: as §1

[6] = system: Streptococcus pyogenes C203; assay: broth micro-dilution MIC; format: cell-based
Procedure: as §1

[7] = system: Entercoccus faecium 180; assay: broth micro-dilution MIC; format: cell-based; conditions: Entercoccus faecium 180
Procedure: (§2) The formula I compounds have in vitro and in vivo activity against Gram-positive pathogenic bacteria. The MIC's were determined using a standard broth micro-dilution assay.

[8] = system: Enterococcus gallinarum 245; assay: broth micro-dilution MIC; format: cell-based; conditions: Enterococcus gallinarum 245
Procedure: as §2

[9] = system: Escherichia coli EC14; assay: broth micro-dilution MIC; format: cell-based
Procedure: as §2

[10] = system: Staphylococcus haemolyticus 105; assay: broth micro-dilution MIC; format: cell-based
Procedure: as §2

[11] = system: Staphylococcus haemolyticus 415; assay: broth micro-dilution MIC; format: cell-based
Procedure: as §2

[12] = system: Streptococcus pneumoniae P1; assay: broth micro-dilution MIC; format: cell-based
Procedure: as §2

[13] = system: vancomycin-resistant enterococci; assay: broth micro-dilution, mean geometric MIC; format: cell-based, Enterococcus faecium and Enterococcus faecalis; conditions: enterococci, 24-hour incubation
[14] = system: Entercoccus faecium 276; assay: broth micro-dilution MIC; format: cell-based
Procedure: as §1

[15] = system: Staphylococcus aureus 446; assay: broth micro-dilution MIC; format: cell-based
Procedure: as §1

[16] = system: Staphylococcus aureus 447; assay: broth micro-dilution MIC; format: cell-based
Procedure: as §1

[17] = system: Staphylococcus aureus 489; assay: broth micro-dilution MIC; format: cell-based
Procedure: as §1

[18] = system: Staphylococcus aureus 491; assay: broth micro-dilution MIC; format: cell-based
Procedure: as §1

[19] = system: Staphylococcus aureus SA1199A; assay: broth micro-dilution MIC; format: cell-based
Procedure: as §1

[20] = system: Entercoccus faecium 2041; assay: broth micro-dilution MIC; format: cell-based; conditions: Entercoccus faecium 2041
Procedure: as §2

[21] = system: Staphylococcus epidermidis 270; assay: broth micro-dilution MIC; format: cell-based
Procedure: as §2

[22] = system: vancomycin-susceptible enterococci; assay: broth micro-dilution, mean geometric MIC; format: cell-based, Enterococcus faecium and Enterococcus faecalis; conditions: enterococci, 24-hour incubation
[23] = system: Staphylococcus aureus S13E; format: cell-based
Procedure: as §1

[24] = system: Haemophilus influenzae RD; assay: broth micro-dilution MIC; format: cell-based; conditions: Haemophilus influenzae RD
Procedure: as §2

Question: How did the MIC [1] turn out when `CNC(CC(C)C)C(=O)NC1C(=O)NC(CC(N)=O)C(=O)NC2C(=O)NC3C(=O)NC(C(=O)NC(C(=O)O)c4cc(O)cc(O)c4-c4cc3ccc4O)C(OC3CC(C)(N)C(O)C(C)O3)c3ccc(c(Cl)c3)Oc3cc2cc(c3OC2OC(CO)C(O)C(O)C2OC2CC(C)(NCc3c(C)c(C)c(C)c(C)c3C)C(O)C(C)O2)Oc2ccc(cc2Cl)C1O` (stereo not drawn) [Compound 73] was run?
Answer: ≤ 0.06 µg/mL

Question: What about the MIC [2] of the same compound?
Answer: ≤ 0.06 µg/mL

Question: What about the MIC [3] of the same compound?
Answer: 0.5 µg/mL (≈ 0.285 µM)

Question: And the MIC [4]?
Answer: 0.5 µg/mL (≈ 0.285 µM)

Question: And the MIC [5]?
Answer: 1 µg/mL (≈ 0.571 µM)

Question: And the MIC [6]?
Answer: ≤ 0.06 µg/mL

Question: And the MIC [7]?
Answer: 0.5 µg/mL (≈ 0.285 µM)

Question: And the MIC [8]?
Answer: 2 µg/mL (≈ 1.14 µM)

Question: What about the MIC [9] of the same compound?
Answer: > 64 µg/mL

Question: And the MIC [10]?
Answer: 0.5 µg/mL (≈ 0.285 µM)

Question: And the MIC [11]?
Answer: 2 µg/mL (≈ 1.14 µM)

Question: And the MIC [12]?
Answer: ≤ 0.06 µg/mL

Question: And the “mean geometric MIC, Vancomycin Resistant Strains” value [13]?
Answer: 11 µg/mL

Question: `CNC(CC(C)C)C(=O)NC1C(=O)NC(CC(N)=O)C(=O)NC2C(=O)NC3C(=O)NC(C(=O)NC(C(=O)O)c4cc(O)cc(O)c4-c4cc3ccc4O)C(OC3CC(C)(N)C(O)C(C)O3)c3ccc(c(Cl)c3)Oc3cc2cc(c3OC2OC(CO)C(O)C(O)C2OC2CC(C)(NCc3ccc([N+](=O)[O-])cc3)C(O)C(C)O2)Oc2ccc(cc2Cl)C1O` (stereo not drawn) [Compound 78] was tested. Which MIC [1] did it give?
Answer: ≤ 0.06 µg/mL

Question: And the MIC [2]?
Answer: ≤ 0.06 µg/mL

Question: And the MIC [14]?
Answer: 0.125 µg/mL (≈ 0.0724 µM)

Question: What about the MIC [15] of the same compound?
Answer: 2 µg/mL (≈ 1.16 µM)

Question: And the MIC [16]?
Answer: ≤ 0.06 µg/mL

Question: What about the MIC [17] of the same compound?
Answer: ≤ 0.06 µg/mL

Question: What about the MIC [18] of the same compound?
Answer: 0.25 µg/mL (≈ 0.145 µM)

Question: And the MIC [19]?
Answer: ≤ 0.06 µg/mL

Question: What about the MIC [3] of the same compound?
Answer: 0.125 µg/mL (≈ 0.0724 µM)

Question: And the MIC [4]?
Answer: ≤ 0.06 µg/mL

Question: What about the MIC [5] of the same compound?
Answer: ≤ 0.06 µg/mL

Question: And the MIC [6]?
Answer: ≤ 0.06 µg/mL

Question: What about the MIC [7] of the same compound?
Answer: 1 µg/mL (≈ 0.579 µM)

Question: And the MIC [20]?
Answer: ≤ 0.06 µg/mL

Question: And the MIC [8]?
Answer: 0.125 µg/mL (≈ 0.0724 µM)

Question: And the MIC [9]?
Answer: > 64 µg/mL

Question: What about the MIC [21] of the same compound?
Answer: 0.5 µg/mL (≈ 0.289 µM)

Question: What about the MIC [10] of the same compound?
Answer: 2 µg/mL (≈ 1.16 µM)

Question: And the MIC [11]?
Answer: 16 µg/mL (≈ 9.26 µM)

Question: And the MIC [12]?
Answer: ≤ 0.06 µg/mL

Question: And the “mean geometric MIC, Vancomycin Resistant Strains” value [13]?
Answer: 16 µg/mL

Question: And the “mean geometric MIC, Vancomycin Sensitive Strains” value [22]?
Answer: 0.76 µg/mL

Question: What does the source list for `CNC(CC(C)C)C(=O)NC1C(=O)NC(CC(N)=O)C(=O)NC2C(=O)NC3C(=O)NC(C(=O)NC(C(=O)O)c4cc(O)cc(O)c4-c4cc3ccc4O)C(OC3CC(C)(N)C(O)C(C)O3)c3ccc(c(Cl)c3)Oc3cc2cc(c3OC2OC(CO)C(O)C(O)C2OC2CC(C)(NCc3c4c(cc5ccccc35)CCCC4)C(O)C(C)O2)Oc2ccc(cc2Cl)C1O` (stereo not drawn) [Compound 156]?
Answer: MIC [23]: 1 µg/mL (≈ 0.56 µM); MIC [1]: 0.5 µg/mL (≈ 0.28 µM); MIC [2]: ≤ 0.06 µg/mL; MIC [14]: 2 µg/mL (≈ 1.12 µM); MIC [15]: 2 µg/mL (≈ 1.12 µM); MIC [16]: 1 µg/mL (≈ 0.56 µM); MIC [17]: 1 µg/mL (≈ 0.56 µM); MIC [18]: 1 µg/mL (≈ 0.56 µM); MIC [19]: ≤ 0.06 µg/mL; MIC [3]: 1 µg/mL (≈ 0.56 µM); MIC [4]: 2 µg/mL (≈ 1.12 µM); MIC [5]: 1 µg/mL (≈ 0.56 µM); MIC [6]: ≤ 0.06 µg/mL; MIC [7]: 1 µg/mL (≈ 0.56 µM); MIC [20]: 0.5 µg/mL (≈ 0.28 µM); MIC [8]: 2 µg/mL (≈ 1.12 µM); MIC [24]: 2 µg/mL (≈ 1.12 µM); MIC [21]: 1 µg/mL (≈ 0.56 µM); MIC [10]: 4 µg/mL (≈ 2.24 µM); MIC [11]: 2 µg/mL (≈ 1.12 µM); MIC [12]: ≤ 0.06 µg/mL; mean geometric MIC, Vancomycin Resistant Strains [13]: 5.7 µg/mL; mean geometric MIC, Vancomycin Sensitive Strains [22]: 0.17 µg/mL

Question: What does the source list for `CNC(CC(C)C)C(=O)NC1C(=O)NC(CC(N)=O)C(=O)NC2C(=O)NC3C(=O)NC(C(=O)NC(C(=O)O)c4cc(O)cc(O)c4-c4cc3ccc4O)C(OC3CC(C)(N)C(O)C(C)O3)c3ccc(c(Cl)c3)Oc3cc2cc(c3OC2OC(CO)C(O)C(O)C2OC2CC(C)(NCc3c4ccccc4c(C)c4ccccc34)C(O)C(C)O2)Oc2ccc(cc2Cl)C1O` (stereo not drawn) [Compound 17]?
Answer: MIC [23]: 1 µg/mL (≈ 0.557 µM); MIC [1]: 1 µg/mL (≈ 0.557 µM); MIC [2]: ≤ 0.06 µg/mL; MIC [14]: 0.5 µg/mL (≈ 0.278 µM); MIC [15]: 2 µg/mL (≈ 1.11 µM); MIC [16]: 8 µg/mL (≈ 4.45 µM); MIC [17]: 1 µg/mL (≈ 0.557 µM); MIC [18]: 2 µg/mL (≈ 1.11 µM); MIC [19]: ≤ 0.06 µg/mL; MIC [3]: 4 µg/mL (≈ 2.23 µM); MIC [4]: 0.5 µg/mL (≈ 0.278 µM); MIC [5]: 0.5 µg/mL (≈ 0.278 µM); MIC [6]: ≤ 0.06 µg/mL; MIC [7]: 2 µg/mL (≈ 1.11 µM); MIC [20]: 0.25 µg/mL (≈ 0.139 µM); MIC [8]: 0.5 µg/mL (≈ 0.278 µM); MIC [24]: 32 µg/mL (≈ 17.8 µM); MIC [21]: 4 µg/mL (≈ 2.23 µM); MIC [10]: 8 µg/mL (≈ 4.45 µM); MIC [11]: 8 µg/mL (≈ 4.45 µM); MIC [12]: ≤ 0.06 µg/mL; mean geometric MIC, Vancomycin Resistant Strains [13]: 9.5 µg/mL; mean geometric MIC, Vancomycin Sensitive Strains [22]: 0.38 µg/mL
